Test results reported in patent US20190209472A1, “FORMULATIONS FOR DERMAL DELIVERY OF POLYMER CONJUGATES OF INDOLOCARBAZOLE COMPOUNDS WITH REDUCED EXPOSURE” (Sienna Biopharmaceuticals, Inc., priority 2017, published 2019).

Assays:
[1] = biological target: TrkA kinase (Homo sapiens, UniProt P04629)
[2] = tested on: pruritus associated with psoriasis vulgaris; assay: Phase 1b maximal use study: exploratory efficacy (I-NRS, PASI, IGA, BSA); assay type: in vivo, human
Text: Efficacy Evaluations: Change from baseline at each study visit in the I-NRS; Change from baseline at each study visit in the Psoriasis Area and Severity Index ([…]) score; PASI-75: response defined as a reduction of ≥75% from baseline at each study visit on the PASI; PASI-50: response defined as a reduction of ≥50% from baseline at each study visit on the PASI; Change from baseline at each study visit in the Investigator Global Assessment (IGA); Proportion of subjects with a ≥1-grade decrease on the IGA at each study visit; Proportion of subjects with a ≥2-grade decrease on the IGA at each study visit; and Change from baseline at each study visit in BSA affected by psoriasis.
Subject Assessments—Itch Numeric Rating Scale: The I-NRS is a 1 item daily PRO measure that the subjects use to assess pruritus severity at its worst in the 24 hours prior to the assessment based on an 11-point numeric rating scale ranging from 0 (“no itching at all”) to 10 (“worst possible itching”). The I-NRS assesses overall pruritus severity. An I-NRS score of at least 4 is required to be eligible for the study. The investigator will evaluate subject eligibility based on itch associated with PV plaques at Screening. The Baseline measurement will be collected on Study Day 1 prior to study drug administration. The change from Baseline at each study visit will be determined.
Investigator Assessments: Investigator assessments include: BSA affected by psoriasis; IGA of overall psoriasis (Apremilast (Otezla) CDER Medical Review of Celgene NDA, 2014. Accessdata.fda.gov. Accessed Aug. 8, 2017.); and PASI (Fredriksson T, Pettersson U. Severe psoriasis—oral therapy with a new retinoid. Dermatologica. 1978; 157(4):238-244.).
Body Surface Area Affected by Psoriasis: Assessment of the percentage of a subject's BSA affected by psoriasis will be made by best estimates of the investigator, using the “handprint” method where 1%=1 subject handprint. At screening and baseline this should be ≥20% of BSA. The change from baseline BSA affected by psoriasis will be determined.
Investigator Global Assessment: The IGA is a site-based clinician-reported outcome measure that assesses the overall severity of psoriasis by evaluating induration (plaque elevation), erythema, and desquamation (scaling) on a 5-point scale from 0 to 4, where 0=Clear to 4=Severe. The investigator will make this assessment to calculate the overall improvement in psoriasis (the proportion of subjects achieving a rating of “Clear” or “Almost Clear” and at least a 2-point decrease [improvement] on the 5-point scale) using the IGA. The proportion of subjects achieving at least a 1-grade and 2-grade decrease from baseline will also be calculated.
Psoriasis Area and Severity Index: The PASI score is a site-based ClinRO by which a weighted sum of erythema, scaling, and induration/thickness scores over different regions of the body is determined, using the algorithm given in Fredriksson T, Pettersson U., Dermatologica. 1978; 157(4):238-244.). Each symptom will be scored on a 5-point scale from 0 to 4, where 0=Clear and 4=Very marked. The change from Baseline in the PASI score, and the percentages of subjects who have achieved a ≥75% or ≥50% reduction from baseline (PASI-75 and PASI-50, respectively), will be determined.

TrkA kinase, sequence (P04629 33-796): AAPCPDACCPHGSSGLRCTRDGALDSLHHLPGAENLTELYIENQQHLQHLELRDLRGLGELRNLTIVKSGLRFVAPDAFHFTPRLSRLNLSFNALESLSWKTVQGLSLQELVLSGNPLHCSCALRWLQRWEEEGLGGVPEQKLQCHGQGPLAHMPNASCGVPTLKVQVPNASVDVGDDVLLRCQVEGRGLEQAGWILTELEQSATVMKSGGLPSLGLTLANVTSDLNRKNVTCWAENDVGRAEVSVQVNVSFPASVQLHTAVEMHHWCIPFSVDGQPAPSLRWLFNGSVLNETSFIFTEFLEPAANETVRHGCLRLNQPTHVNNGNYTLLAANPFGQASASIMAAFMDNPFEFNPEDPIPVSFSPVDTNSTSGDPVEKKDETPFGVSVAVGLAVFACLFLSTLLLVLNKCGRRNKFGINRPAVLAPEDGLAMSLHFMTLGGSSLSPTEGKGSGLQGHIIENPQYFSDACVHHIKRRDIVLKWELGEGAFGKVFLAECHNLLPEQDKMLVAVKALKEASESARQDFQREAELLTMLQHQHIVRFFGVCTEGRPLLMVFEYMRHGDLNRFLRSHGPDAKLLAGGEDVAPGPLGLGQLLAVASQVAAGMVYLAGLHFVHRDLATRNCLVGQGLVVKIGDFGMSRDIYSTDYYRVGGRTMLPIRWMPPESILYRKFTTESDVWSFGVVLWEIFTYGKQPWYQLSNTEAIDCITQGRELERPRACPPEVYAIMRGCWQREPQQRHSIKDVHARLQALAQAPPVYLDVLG

(9S, 10R, 12R)-10-(3′-mPEG2000-1′,3′-oxazolidine-2′,4′-dione)-2,3,9,10,11,12-hexahydro-9-methyl-1-oxo-9,12-epoxy-1H-diindolo[1,2,3-fg:3′,2′,1′-k,l]pyrrolo[3,4-i][1,6] benzodiazocine] [CT327]
Inhibition of TrkA kinase [1]: inhibitor of TrkA kinase at nanomolar levels | IGA 1-grade, % of subjects ([2]; Week 4): (30%) | IGA 2-grade, % of subjects ([2]; Week 4): (13.3%) | NRS 3-grade, % of subjects ([2]; Week 4): (60.0%) | NRS 50, % of subjects ([2]; Week 4): (46.7%) | NRS (% change from baseline), mean ([2]; Week 4): −41.35% | PASI 50, % of subjects ([2]; Week 4): (33.3%) | PASI 75, % of subjects ([2]; Week 4): (10.0%) | PASI (change from baseline), mean ([2]; Week 4): −6.44 | NRS (change from baseline), mean ([2]; Week 4, 0.5% SNA-120 (w/w) ointment twice daily, open label): −3.4 | Subjects with at least a 4-grade improvement in the Itch Numeric Rating Scale (I-NRS) ([2]; post hoc analysis): approximately 57% of subjects
